Biological target: SARS‐CoV M^pro (Severe acute respiratory syndrome-related coronavirus, UniProt P0C6X7)
Experiment: biochemical

SMILES: CC1=C(C(=O)OCCc2ccccc2)C(c2ccccc2[N+](=O)[O-])C2=C(CCCC2=O)N1 (stereo not shown) [MP576, 3‐quinolinecarboxylic acid, 1,4,5,6,7,8‐hexahydro‐2‐methyl‐4‐(2‐nitrophenyl)‐5‐oxo‐, 2‐phenylethyl ester]
- Ki: 2.9 ± 0.3 µM

Source: paper PMC7134596 (Febs Letters, 2004)
